Columns and labels:
Type in all cases: in vivo
[1] = test system: Panicum miliace; assay: Field trials: control of Panicum miliace
[2] = test system: shattercane (Sorghum bicolor); assay: Field trial: control of shattercane; conditions: after 7 days
[3] = test system: Setaria viridis; assay: Field trials: control of Setaria viridis
[4] = test system: ACCase tolerant sorghum variety BTX430-CHR-ACC1; assay: Greenhouse crop response of ACCase tolerant sorghum to quizalofop with and without isoxadifen; conditions: FIG. 1, X-rates 0.5-8 (Quizalofop 39-616 g/ha, Isoxadifen 27-431 g/ha), rated approximately 14 days after application, versus quizalofop without isoxadifen
From the text: Seeds of the proprietary ACCase tolerant sorghum variety BTX430-CHR-ACC1 (ATCC deposit PTA-125106, mutation W1999C) were supplied by S&W. BTX430-CHR-ACC1 sorghum cultivar contains a single mutation in the ACCase gene that confers ACCase tolerance: Tryptophan to Cysteine amino acid substitution at an amino acid position 1999 (W1999C; SEQ ID NO: 7 as disclosed in WO 2018/222715, namely the sequence denoted herein by SEQ ID NO: 6) aligning with the amino acid sequence of SEQ ID NO: 6 (as disclosed in WO 2018/222715, namely the sequence denoted herein by SEQ ID NO: 5). The mutation provides tolerance to quizalofop.
ACCase tolerant Sorghum seeds (S & W Line ID: T19-90001) were planted in commercial greenhouse soil mix in ˜8-cm square pots.
Plants were started in a greenhouse and placed outdoors at ambient air temperatures when temperatures were conducive to sorghum growth.
Soil fertility and moisture were provided on an as needed basis.
Plants were grown to heights of 10 to 13, 15-18, 20 to 25 and 30 to 35 cm for treatment.
Safener was premixed in the ADM.7000.H.2.A formulation.
Sorghum plants were subjected to “Standard Weed Science Percentage Rankings” where 0=no effect of the herbicide and 100%=complete plant death. Injury represents discoloration, stunting and malformation. Ratings were taken approximately 14 days after herbicide application. […]

[5] = Table 4 trial, after 33 days, X-rate 0.5: Quizalofop 5 oz/a, Isoxadifen 5 oz/a or none
[6] = Table 4 trial, after 33 days, X-rate 1: Quizalofop 10 oz/a, Isoxadifen 10 oz/a or none
[7] = Table 4 trial, after 33 days, X-rate 2: Quizalofop 20 oz/a, Isoxadifen 20 oz/a or none
[8] = Table 5 second trial, after 27 days, X-rate 0.5: Quizalofop 5 oz/a, Isoxadifen 5 oz/a or none
[9] = Table 5 second trial, after 27 days, X-rate 1: Quizalofop 10 oz/a, Isoxadifen 10 oz/a or none
[10] = Table 5 second trial, after 27 days, X-rate 2: Quizalofop 20 oz/a, Isoxadifen 20 oz/a or none

Structure (SMILES)	% control Panicum miliace [1, 5] [%]	% control Panicum miliace [1, 6] [%]	% control Panicum miliace [1, 7] [%]	% control Panicum miliace [1, 8] [%]	% control Panicum miliace [1, 9] [%]	% control Panicum miliace [1, 10] [%]	% control Shattercane ([2]; X-rate 0.5: Quizalofop 5 oz/a, Isoxadifen 5 oz/a or none) [%]	% control Shattercane ([2]; X-rate 1: Quizalofop 10 oz/a, Isoxadifen 10 oz/a or none) [%]	% control Shattercane ([2]; X-rate 2: Quizalofop 20 oz/a, Isoxadifen 20 oz/a or none) [%]	% control Setaria viridis [3, 5] [%]	% control Setaria viridis [3, 6] [%]	% control Setaria viridis [3, 7] [%]	% control Setaria viridis [3, 8] [%]	% control Setaria viridis [3, 9] [%]	% control Setaria viridis [3, 10] [%]	crop response (percentage of sorghum crop displaying phytotoxicity) against the X-Rate [4]
CCOC(=O)[C@@H](C)Oc1ccc(Oc2cnc3cc(Cl)ccc3n2)cc1 [Quizalofop, quizalofop P-ethyl]	100	100	100	100	100	100	96.8	96.8	99	100	100	100	100	100	100	–
O=C(O)C1=NOC(c2ccccc2)(c2ccccc2)C1 [isoxadifen]	–	–	–	–	–	–	–	–	–	–	–	–	–	–	–	significant decrease of crop response
